In patent publication US20240246941A1, “SUBSTITUTED 4-(3-AMINOPROP-1-YL)AMINOQUINOLINE ANALOGS AS MODULATORS OF MELANOMA-ASSOCIATED ANTIGEN 11 UBIQUITIN LIGASE” (ST. JUDE CHILDREN'S RESEARCH HOSPITAL, INC., priority 2020, published 2024):

Experiments:
[1] = biological target: interaction between GST-MAGEA11 MHD and FAM-PCF11_4 peptide (MAGE-A11:PCF11) (Homo sapiens (Human), UniProt P43364); assay: TR-FRET dose response competition assay for disruption of MAGE-A11:PCF11 binding; settings: Dose response TR-FRET screening of nine scaffold groups against MAGE-A11:PCF11; read-out: consensus IC50
Description: TR-FRET Assays and High-throughput Screen. Terbium-anti-GST antibody, 1 M Tris pH 7.5 1 M MgCl2 and 1 M DTT were purchased from Invitrogen (Carlsbad, CA), BSA was purchased from Sigma (St. Louis, MO). Dimethyl sulfoxide (DMSO) was purchased from Fisher Scientific (Pittsburgh, PA). Black 384-well low volume plates and 384-well polypropylene compound plates were purchased from Corning Incorporated (Tewksbury, MA). The St. Jude FDA drug and Bioactive library (11,293 chemicals), Drug-like library (10,073 chemicals) and Lead-like library (10,041 chemicals) were custom assembled and purchased from commercial sources including Sigma, Microsource (Gaylordsville, CT), selleckchem (Houston, TX), ChemDiv (San Diego, CA), ChemBridge (San Diego, CA), Enamine (Monmouth Jct., NJ), and Life Chemicals (Niagara-on-the-Lake, ON, Canada). They were arrayed (10 mM in DMSO) in 384-well polypropylene compound plates with columns 1, 2, 13 and 14 empty which were reserved for controls.
The TR-FRET assay buffer with a formula of 50 mM Tris pH 7.5, 20 mM MgCl2, 0.1 mg/ml BSA and 1 mM DTT was freshly prepared before each experiment. All TR-FRET assays were performed in black 384-well plates with 20 μl/well assay volume in the TR-FRET assay buffer at room temperature (approximately 25° C.). All peptides or compounds were solubilized in DMSO. To test the competitive activity of peptides or compounds against the interaction between GST-MAGEA11 MHD and FAM-PCF11_4 peptide, 10 μl/well peptide or compound at specified concentration was dispensed into a black 384-well low volume plate, followed by 5 μl/well FAM-PCF11_4 (800 nM), 5 μl/well Tb-anti-GST (20 nM) and GST-MAGEA11 MHD (20 nM). The assay components in each well was then mixed by shaking the plate on an IKA MTS 2/4 digital microtiter plate shaker (IKA Works; Wilmington, NC, USA) at 900 RPM for 1 minute. The plate was further centrifuged in an Eppendorf 5810 centrifuge with an A-4-62 swing-bucket rotor (Eppendorf AG, Hamburg, Germany) at 201 g (1000 rpm) for 30 seconds. The plate was then incubated for 90 min with a lid to avoid light exposure to the assay components. After incubation, the fluorescent emission signals at 520 nm and 490 nm channels of individual wells were measured with a PHERAstar FS plate reader (BMG Labtech; Durham, NC, USA) by using a 340 nm excitation filter, 100 μs delay time, and 200 μs integration time. The TR-FRET fluorescence emission ratio (TR-FRET signal) for each well was presented as 10 000×520 nm/490 nm, which was used directly for curve fitting, or further converted to % Inhibition based on the respective positive and negative controls. The graphic software GraphPad Prism 4.81 (GraphPad Software; La Jolla, CA, USA) was used to generate curves and derive IC50 values of tested peptides or compounds, if applicable.
TR-FRET inhibitory activity characterization of a panel of PCF11 peptides against the interaction between GST-MAGEA11 MHD and FAM-PCF11_4 was performed as follows. In a 20 μl/well assay volume, dilutions of PCF11_1 to PCF11_8 peptides (concentrations ranged from 3.1 nM to 100 μM for peptides PCF11_4, PCF11_5, PCF11_6 and PCF11_8 in a 1-to-2 dilution pattern for 16 concentration levels, and ranged from 48.9 nM to 100 μM for peptides of PCF11_1, PCF11_2, PCF11_3 and PCF11_7 in a 1-to-2 dilution pattern for 12 concentration levels), 200 nM FAM-PCF11_4, 5 nM Tb-anti-GST and 5 nM GST-MAGEA11 were mixed together and incubated for 90 min before the TR-FRET signal for each well was measured. The final DMSO concentration was 1.1% (v/v). […] The signal of each peptide-treated well (Signalpeptide) was normalized to the positive and negative controls to derive % inhibition of the peptide at a specific concentration with equation 1. Where applicable, the % Inhibition data were fit into a Sigmoidal dose response equation to derive IC50 values.
TR-FRET screen for identifying MAGEA11 small molecule inhibitors was performed as follows.

MAGE-A11:PCF11 = MAGE-A11:PCF11 (Homo sapiens (Human), UniProt P43364); assay: TR-FRET single point screening at 15 μM; type: binding; parameters: unit not given here
Procedure, shortened: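 Single-point screen at 15 μM (0.25% DMSO) measuring disruption of GST-MAGEA11 (5 nM) binding to FAM-PCF11_4 peptide (200 nM) detected by Tb-anti-GST (5 nM). Buffer 50 mM Tris pH 7.5, 20 mM MgCl2, 0.1 mg/ml BSA, 1 mM DTT; 90 min at ~25 °C; 520/490 nm ratio converted to % inhibition versus controls.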

[2] = single point TR-FRET screening of quinoline compounds against MAGE-A11:PCF11, 15 μM
[3] = single point TR-FRET screening at 15 μM against MAGE-A11:PCF11

Sequence of interaction between GST-MAGEA11 MHD and FAM-PCF11_4 peptide (MAGE-A11:PCF11) (P43364 218-429): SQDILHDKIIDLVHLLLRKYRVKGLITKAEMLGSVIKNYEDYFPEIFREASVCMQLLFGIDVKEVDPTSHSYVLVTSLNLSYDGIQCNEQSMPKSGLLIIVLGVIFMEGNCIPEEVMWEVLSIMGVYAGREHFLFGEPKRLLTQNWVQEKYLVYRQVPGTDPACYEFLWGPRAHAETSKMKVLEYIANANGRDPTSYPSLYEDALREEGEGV
Sequence of MAGE-A11:PCF11 (P43364 218-429): as above

SMILES	IC50 [1] [µM]	TR-FRET signal (MAGE-A11:PCF11; [2])	also measured
CCCN1C(=O)c2ccccc2NC1c1ccc(OC)c(OC)c1 (stereo not drawn) [SJ000026517-1]	69.9	–	–
CCCN1C(=O)c2ccccc2NC1c1ccc(OC)cc1 (stereo not drawn) [SJ000026518-2]	69.9	–	–
O=C1c2ccccc2NC(c2ccc(F)cc2)N1Cc1ccccc1 (stereo not drawn) [SJ000026596-1]	69.9	–	–
Cc1ccc(S(=O)(=O)c2nc(-c3cccc(C)c3)oc2N2CCOCC2)cc1 [SJ000027480-1]	11.2	–	–
O=S(=O)(c1ccc(Cl)cc1)c1nc(-c2cccc(Br)c2)oc1N1CCOCC1 [SJ000027481-1]	9.2	–	–
Cc1ccc(S(=O)(=O)c2nc(-c3cccc([N+](=O)[O-])c3)oc2N2CCOCC2)cc1 [SJ000027482-1]	9.54	–	–
C=C1C(Cl)=C(N2CCN(S(=O)(=O)c3ccc(Cl)cc3)CC2)C(=O)c2ccccc21 [SJ000029651-1]	69.9	–	–
CCOc1ccc(N(C(C)=O)C2=C(Cl)C(=O)c3ccccc3C2=O)cc1 [SJ000030567-2]	69.9	–	–
CCCN(CCCNc1c2ccc(Cl)cc2nc2ccc(OC)cc12)Cc1cccnc1 [SJ000575152]	–	−23.4	–
CCCN(CCCNc1ccnc2cc(C(F)(F)F)ccc12)Cc1nccn1C [SJ000575170]	–	7.124	–
CCCN(CCCNc1ccnc2cc(C(F)(F)F)ccc12)Cc1ccc2[nH]ccc2c1 [SJ000575171]	–	32.89	–
CCCN(CCCNc1ccnc2cc(C(F)(F)F)ccc12)Cc1scnc1C [SJ000575179]	–	5.164	–
CCCN(CCCNc1ccnc2cc(C(F)(F)F)ccc12)Cc1cccnc1Br [SJ000575180]	–	5.164	–
CCCN(CCCNc1ccnc2cc(C(F)(F)F)ccc12)Cc1ncc[nH]1 [SJ000575181]	–	9.345	–
CCCN(CCCNc1ccnc2cc(C(F)(F)F)ccc12)Cc1cnn(C)c1 [SJ000575182]	–	15.68	–
CCCN(CCCNc1ccnc2cc(C(F)(F)F)ccc12)Cc1nccs1 [SJ000575189]	–	8.665	–
CCCN(CCCNc1ccnc2cc(C(F)(F)F)ccc12)CC1CCOC1 (stereo not drawn) [SJ000575190]	–	1.787	–
CCCN(CCCCCC(=O)OC)CCCNc1ccnc2cc(C(F)(F)F)ccc12 [SJ000575191]	–	5.6	–
Clc1ccc2c(NCCCNCc3ccc[nH]3)ccnc2c1 [SJ000575192]	–	52.99	–
Clc1ccc2c(NCCCNCc3ccc(Br)s3)ccnc2c1 [SJ000575193]	–	15.34	–
O=C(C[C@H]1CC[C@]2(CC1)OO[C@]1(O2)C2CC3CC(C2)CC1C3)NCCCNc1ccnc2cc(Cl)ccc12 [SJ000578380]	–	28.48	–
O=C(C[C@H]1CC[C@]2(CC1)OO[C@]1(O2)C2CC3CC(C2)CC1C3)NCCCCNc1ccnc2cc(Cl)ccc12 [SJ000578384]	–	–	TR-FRET signal (MAGE-A11:PCF11; [3]): 25.12
Cc1cc(NC(=O)CN[C@H]2CCN(Cc3ccccc3)C2)c2ccccc2n1 [SJ000832405]	–	–	TR-FRET signal (MAGE-A11:PCF11; [3]): 4.364
Cc1cc(NC(=O)CN[C@H]2CCN(Cc3cccc(F)c3)C2)c2ccccc2n1 [SJ000832581]	–	–	TR-FRET signal (MAGE-A11:PCF11; [3]): −1.278
